Test results from patent publication US20210252028A1, “SYNTHETIC COMPOSITION FOR MICROBIOTA MODULATION” (Glycom A/S, priority 2016, published 2021).

How the values were obtained:
[1] = test system: B. adolescentis phylogenetic group; test: ITS profiling of the Bifidobacterium community in faeces of healthy adults after 2 weeks of HMO consumption; format: in vivo, human; details: for percentage increase of B. adolescentis phylogenetic group: healthy adults, 2 weeks, faecal analyses
Procedure: (§1) A total of 100 male and female healthy adults are recruited to participate in the study. After a screening visit and run-in period of 1-2 weeks, the participants are selected and randomized into ten groups, each of 10 subjects. One group is administered a placebo product containing 2 grams of glucose. The remaining 9 groups are administered treatment product containing a) 20 g of 2′-FL, b) 10 g of 2′-FL, c) 5 g of 2′-FL, d) 20 g of LNnT, e) 10 g of LNnT, f) 5 g of LNnT, g) 20 g of a 2:1 mixture of 2′-FL and LNnT, h) 10 g of a 2:1 mixture of 2′-FL and LNnT, and i) 5 g of a 2:1 mixture of 2′-FL and LNnT for 2 weeks (the amounts correspond to a daily dosis). The placebo and treatment products are in powder form in a unit dosage container.
(§2) The study runs for 2 weeks with the participants consuming either a placebo or a treatment product daily. Participants are instructed to consume the products in the morning with breakfast. Compliance is monitored through the interactive internet enabled system.
(§3) To assess the Bifidobacterium community, ITS profiling of DNA samples is performed according to Milani et al. FEMS Microbiol. Ecol. 90, 493 (2014). […] Both B. adolescentis and B. pseudocatenulatum are members of the B. adolescentis phylogenetic group. It can be seen that oral ingestion of the HMOs clearly increases the abundance of B. adolescentis and/or B. pseudocatenulatum in the microbiota of healthy adults, as well as their relative abundance compared to the totality of other Bifidobacterium species.

[2] = test system: totality of B. longum + B. bifidum + B. animalis lactis + B. angulatum; test: as above; format: in vivo, human; details: faecal analyses
Procedure: as §1, §2, §3

2′-fucosyllactose [2′-FL]
abundance of B. adolescentis and/or B. pseudocatenulatum and relative abundance compared to the totality of other Bifidobacterium species ([1]; healthy adults carrying the FUT2 mutation compared with secretors): increases in a manner similar to those in secretors | percentage increase of B. adolescentis phylogenetic group ([1]; daily dose 5 g): 50% | percentage increase of B. adolescentis phylogenetic group ([1]; daily dose 10 g): 325% | percentage increase of B. adolescentis phylogenetic group ([1]; daily dose 20 g): 120% | percentage increase of totality of B. longum + B. bifidum + B. animalis lactis + B. angulatum ([2]; daily dose 5 g): 0% | percentage increase of totality of B. longum + B. bifidum + B. animalis lactis + B. angulatum ([2]; daily dose 10 g): 20% | percentage increase of totality of B. longum + B. bifidum + B. animalis lactis + B. angulatum ([2]; daily dose 20 g): 15%

CC(=O)N[C@H]1[C@H](O[C@H]2[C@@H](O)[C@@H](CO)O[C@@H](O[C@H]3[C@H](O)[C@@H](O)C(O)O[C@@H]3CO)[C@@H]2O)O[C@H](CO)[C@@H](O[C@@H]2O[C@H](CO)[C@H](O)[C@H](O)[C@H]2O)[C@@H]1O (mixture of isomers) [LNnT, lacto-N-neotetraose]
percentage increase of B. adolescentis phylogenetic group ([1]; daily dose 5 g): 90% | percentage increase of B. adolescentis phylogenetic group ([1]; daily dose 10 g): 195% | percentage increase of B. adolescentis phylogenetic group ([1]; daily dose 20 g): 185% | percentage increase of totality of B. longum + B. bifidum + B. animalis lactis + B. angulatum ([2]; daily dose 5 g): 50% | percentage increase of totality of B. longum + B. bifidum + B. animalis lactis + B. angulatum ([2]; daily dose 10 g): 130% | percentage increase of totality of B. longum + B. bifidum + B. animalis lactis + B. angulatum ([2]; daily dose 20 g): 105%
